Results published in publication PMC3302783, “Position of the Third Na^+ Site in the Aspartate Transporter GltPh and the Human Glutamate Transporter, EAAT1” (PLoS ONE, 2012).

Legend:
EAAT1 T130A = target: T1, EAAT1 T130A (Homo sapiens, UniProt P43003, T130A); assay: Two-electrode voltage clamp of Xenopus laevis oocytes expressing EAAT1 T130A; format: cell-based
T1 construct: expressed in transfected cells; host or cells: Xenopus laevis oocytes injected with cRNA
Description: (§1) All chemicals were obtained from Sigma unless otherwise stated. Stage V oocytes were harvested from Xenopus laevis as described previously.
(§2) NMDG^+ was used as a Na^+ substitute to maintain ionic strength of the buffers.
(§3) Substrate responses were fitted by least squares as a function of substrate concentration to I/Imax = [S]/([S]+K 0.5), where I is the current, Imax is the maximal current, K 0.5 is the concentration of substrate that generates half-maximal response, and [S] is the substrate concentration. Na^+ concentration responses were fit to the Hill equation I/Imax = [S]^n/([S]^n+(K 0.5)^n) where n is the Hill coefficient and all other terms are as described above. For ^3H-L-aspartate uptake by GltPh, initial rates were calculated from the linear portion of the curve and all data represent the mean ± s.e.m. of at least 3 experiments.

EAAT1 = target: T2, EAAT1 (Homo sapiens, UniProt P43003); assay: Two-electrode voltage clamp of Xenopus laevis oocytes expressing wild type EAAT1; format: cell-based
T2 construct: expressed in transfected cells; host or cells: Xenopus laevis oocytes injected with cRNA
Description: as §1, §2, §3

EAAT1 T131A = target: T3, EAAT1 T131A (Homo sapiens, UniProt P43003, T131A); assay: Two-electrode voltage clamp of Xenopus laevis oocytes expressing EAAT1 T131A; format: cell-based
T3 construct: expressed in transfected cells; host or cells: Xenopus laevis oocytes injected with cRNA
Description: as §1, §2, §3

GltPh = system: GltPh; set-up: method as in PMID 17230192, PMID 19380583; settings: initial functional studies of GltPh; ref [9], [11]; cited from earlier work
wild type GltPh = target: T4, wild type GltPh (Pyrococcus horikoshii, UniProt O59010); assay: ^3H-L-aspartate uptake in proteoliposomes, wild type GltPh; format: biochemical
T4 construct: histidine tag (cleaved yes); made in house
T4 sequence (O59010 1-425): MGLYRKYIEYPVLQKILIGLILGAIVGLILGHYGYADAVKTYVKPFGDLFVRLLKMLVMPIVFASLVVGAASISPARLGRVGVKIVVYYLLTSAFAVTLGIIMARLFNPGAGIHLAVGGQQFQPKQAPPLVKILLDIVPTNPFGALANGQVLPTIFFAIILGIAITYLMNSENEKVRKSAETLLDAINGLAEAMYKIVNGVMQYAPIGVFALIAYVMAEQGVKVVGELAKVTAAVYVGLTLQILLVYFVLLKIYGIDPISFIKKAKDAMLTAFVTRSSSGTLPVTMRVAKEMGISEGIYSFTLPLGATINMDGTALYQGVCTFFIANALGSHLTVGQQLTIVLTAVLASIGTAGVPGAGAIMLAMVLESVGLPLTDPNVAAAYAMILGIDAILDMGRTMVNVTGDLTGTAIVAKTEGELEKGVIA
Experimental: (§4) Pure protein was reconstituted into liposomes using a method modified from Gaillard et al., 1996 [37]. Escherichia coli polar lipids and 1-palmitoyl-2-oleoyl-sn-glycero-3-phosphocholine (Avanti Polar Lipids), at a ratio of 3∶1, were mixed, dried under nitrogen, and resuspended in internal buffer (100 mM KCl, 20 mM HEPES pH 7.5 or the appropriate internal buffer as indicated below). The lipid mixture was briefly sonicated using a cylindrical sonicator (Labatory Supplies Co.) and the lipid suspension was frozen in liquid nitrogen and thawed at 45°C several times. Liposomes were formed by extrusion through 400 nm polycarbonate membranes (Avanti Polar Lipids) and were treated with Triton X-100 at a 0.5∶1 (w/w) detergent to lipid ratio prior to the addition of protein at 0.25 µg protein/mg lipid. The protein/lipid mixture was left at room temperature for 30 minutes before detergent was removed using SM2 Biobeads (Biorad). The protein/lipid mixture was incubated, with gentle agitation, with three consecutive batches of the Biobeads (80 mg/ml). Proteoliposomes were concentrated by centrifugation at 150,000 g for 30 minutes in a Beckman Optima TLX centrifuge, resuspended at 100 mg lipid/mL and either used immediately or flash frozen in liquid nitrogen and stored at −80°C.
(§5) ^3H-L-aspartate transport by wild type GltPh and mutant GltPh transporters was assayed using a protocol modified from Gaillard et al., 1996 [37]. Proteoliposomes were loaded with internal buffer (100 mM KCl, 20 mM HEPES pH 7.5) by several freeze/thaw cycles followed by extrusion as described above. The uptake reaction was initiated by diluting the proteoliposomes (100 mg lipid/mL) 133 fold into reaction buffer pre-warmed to 30°C. The reaction buffer contained: 100 mM NaCl, 20 mM HEPES pH 7.5, 1 µM valinomycin and the indicated concentrations of ^3H-L-aspartate. […] The filters were washed once with 2 mL of ice cold quench buffer and assayed for radioactivity using a Trilux beta counter (Perkin Elmer). The Na^+ dependence of ^3H-L-aspartate transport was measured by varying extraliposomal Na^+ from 0.1 to 300 mM Na^+. […] Background levels of uptake were measured by diluting proteoliposomes into internal buffer (100 mM KCl, 20 mM HEPES pH 7.5) containing 1 µM valinomycin and the indicated concentrations of ^3H-L-aspartate.
as §3, with “Na^+ concentration responses were fit to the Hill equation I/Imax = [S]^n/([S]^n+(K 0.5)^n) where n is the Hill coefficient and all other terms are as described above.” left out

GltPh S93A [1] = target: T5, GltPh S93A (Pyrococcus horikoshii, UniProt O59010, S93A); assay: ^3H-L-aspartate uptake in proteoliposomes, GltPh S93A; format: biochemical
T5 construct: histidine tag (cleaved yes); made in house
Experimental: as §4, §5
as §3, with “Na^+ concentration responses were fit to the Hill equation I/Imax = [S]^n/([S]^n+(K 0.5)^n) where n is the Hill coefficient and all other terms are as described above.” left out

GltPh T92A [2] = target: T6, GltPh T92A (Pyrococcus horikoshii, UniProt O59010, T92A); assay: Binding free energy of Na^+ ions by thermodynamic integration (MD), GltPh T92A; settings: GltPh T92A versus GltPh; from TI calculations
T6 construct: histidine tag (cleaved yes); made in house
Experimental: (§6) The simulation systems are prepared using the software VMD [28]. The crystal structure of the GltPh trimer is embedded in a 1-palmitoyl-2-oleoyl-phosphatidylethanolamine (POPE) phospholipid bilayer and solvated in a box of water molecules with physiological concentration of NaCl. The final system consists of the trimer, 239 lipid molecules, 15688 water molecules and 35 Na^+ and 35 Cl^− ions. GltPh has a net charge of +6e, so to keep the system neutral 6 Cl^− ions are added in the apo system (more Cl^− ions are added when the bound Na^+ ions are included to preserve neutrality). […]
(§7) The binding free energies of Na^+ ions are calculated using the expression, ΔGb = ΔGint+ΔGtr , where the first term gives the free energy difference for the interactions of the ion in the binding site and bulk (i.e. translocation energy) and the second term measures the free energy loss due to reduction in translational entropy upon binding. […] The interaction energy is calculated using both the free energy perturbation (FEP) and the thermodynamic integration (TI) methods, [35]. […] Otherwise the binding free energy of the ion is determined from the average of the forward and backward calculations. […]

GltPh S93A [3] = target: T5, GltPh S93A; assay: Binding free energy of Na^+ ions by thermodynamic integration (MD), GltPh S93A; settings: GltPh S93A versus GltPh; from TI calculations
Experimental: as §6, §7

GltPh T92A [4] = target: T6, GltPh T92A; assay: ^3H-L-aspartate uptake in proteoliposomes, GltPh T92A; format: biochemical
Experimental: as §4, §5
as §3, with “Na^+ concentration responses were fit to the Hill equation I/Imax = [S]^n/([S]^n+(K 0.5)^n) where n is the Hill coefficient and all other terms are as described above.” left out

GltPh D312A = target: T7, GltPh D312A (Pyrococcus horikoshii, UniProt O59010, D312A); assay: ^3H-L-aspartate uptake in proteoliposomes, GltPh D312A; format: biochemical; settings: 100 nM ^3H-L-aspartate, 100 mM NaCl
T7 construct: histidine tag (cleaved yes); made in house
Experimental: (§8) Pure protein was reconstituted into liposomes using a method modified from Gaillard et al., 1996 [37]. Escherichia coli polar lipids and 1-palmitoyl-2-oleoyl-sn-glycero-3-phosphocholine (Avanti Polar Lipids), at a ratio of 3∶1, were mixed, dried under nitrogen, and resuspended in internal buffer (100 mM KCl, 20 mM HEPES pH 7.5 or the appropriate internal buffer as indicated below). The lipid mixture was briefly sonicated using a cylindrical sonicator (Labatory Supplies Co.) and the lipid suspension was frozen in liquid nitrogen and thawed at 45°C several times. […]
(§9) ^3H-L-aspartate transport by wild type GltPh and mutant GltPh transporters was assayed using a protocol modified from Gaillard et al., 1996 [37]. […] The filters were washed once with 2 mL of ice cold quench buffer and assayed for radioactivity using a Trilux beta counter (Perkin Elmer). The Na^+ dependence of ^3H-L-aspartate transport was measured by varying extraliposomal Na^+ from 0.1 to 300 mM Na^+. […] Background levels of uptake were measured by diluting proteoliposomes into internal buffer (100 mM KCl, 20 mM HEPES pH 7.5) containing 1 µM valinomycin and the indicated concentrations of ^3H-L-aspartate. […]

GltPh N310A = target: T8, GltPh N310A (Pyrococcus horikoshii, UniProt O59010, N310A); assay: ^3H-L-aspartate uptake in proteoliposomes, GltPh N310A; format: biochemical; settings: 100 nM ^3H-L-aspartate, 100 mM NaCl
T8 construct: histidine tag (cleaved yes); made in house
Experimental: as §8, §9

[5] = 100 µM L-glutamate, oocytes clamped at −60 mV
[6] = 100 nM ^3H-L-aspartate, Na^+ 0.1 to 300 mM
[7] = 100 mM Na^+, saturating substrate concentrations
[8] = ^3H-L-aspartate concentration-dependent transport, 100 mM NaCl

T1 sequence (P43003 whole entry T130A): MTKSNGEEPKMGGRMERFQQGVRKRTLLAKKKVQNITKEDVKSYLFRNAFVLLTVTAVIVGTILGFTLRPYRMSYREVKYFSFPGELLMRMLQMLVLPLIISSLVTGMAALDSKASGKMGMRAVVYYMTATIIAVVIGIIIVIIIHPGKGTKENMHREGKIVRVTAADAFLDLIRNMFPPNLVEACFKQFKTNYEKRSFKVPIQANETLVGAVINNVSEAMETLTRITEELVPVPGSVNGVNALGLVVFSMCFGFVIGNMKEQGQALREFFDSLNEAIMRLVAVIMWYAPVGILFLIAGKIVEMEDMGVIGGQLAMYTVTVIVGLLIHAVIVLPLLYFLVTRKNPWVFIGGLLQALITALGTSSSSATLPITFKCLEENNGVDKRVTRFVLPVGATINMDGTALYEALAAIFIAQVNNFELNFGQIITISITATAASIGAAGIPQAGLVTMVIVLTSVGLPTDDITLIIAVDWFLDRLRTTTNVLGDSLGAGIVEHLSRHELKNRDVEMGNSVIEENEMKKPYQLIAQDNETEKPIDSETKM
T6 sequence (O59010 whole entry T92A): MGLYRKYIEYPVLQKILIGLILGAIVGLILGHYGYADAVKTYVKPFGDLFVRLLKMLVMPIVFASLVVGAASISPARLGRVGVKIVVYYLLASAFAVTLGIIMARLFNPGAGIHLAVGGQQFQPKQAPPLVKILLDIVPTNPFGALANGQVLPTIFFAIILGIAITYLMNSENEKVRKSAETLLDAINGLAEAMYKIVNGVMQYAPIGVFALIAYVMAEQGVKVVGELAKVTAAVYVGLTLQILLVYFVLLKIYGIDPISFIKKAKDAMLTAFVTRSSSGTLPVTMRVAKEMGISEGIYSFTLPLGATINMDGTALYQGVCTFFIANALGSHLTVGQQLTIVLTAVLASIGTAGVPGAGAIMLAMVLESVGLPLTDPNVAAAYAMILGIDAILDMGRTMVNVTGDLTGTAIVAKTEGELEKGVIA
T3 sequence (P43003 whole entry T131A): as the sequence (P43003 whole entry T130A) above, with A130T, T131A counted along it
T2 sequence (P43003 whole entry): as the sequence (P43003 whole entry T130A) above, with A130T counted along it
T5 sequence (O59010 whole entry S93A): as the sequence (O59010 whole entry T92A) above, with A92T, S93A counted along it
T8 sequence (O59010 whole entry N310A): as the sequence (O59010 whole entry T92A) above, with A92T, N310A counted along it
T7 sequence (O59010 whole entry D312A): as the sequence (O59010 whole entry T92A) above, with A92T, D312A counted along it

## N[C@@H](CCC(=O)O)C(=O)O [L-glutamate]
EAAT1 T130A; [5]
  current elicited by L-glutamate: 21±2 nA
EAAT1 T130A; oocytes clamped at −60 mV
  K 0.5 for L-glutamate transport: 87 ± 3 µM
EAAT1; [5]
  current elicited by L-glutamate: 395±20 nA
EAAT1; oocytes clamped at −60 mV
  K 0.5 for L-glutamate transport: 15 ± 1 µM
EAAT1 T131A; [5]
  current elicited by L-glutamate: 25±2 nA
EAAT1 T131A; oocytes clamped at −60 mV
  K 0.5 for L-glutamate transport: 124 ± 11 µM

## [Na+] [Na^+]
GltPh
  Hill coefficient (Na^+ ions co-transported with substrate): > 2
Wild type GltPh; 100 nM ^3H-L-aspartate
  Hill coefficient of Na^+ dependence of aspartate transport: 2.3±0.5
Wild type GltPh; [6]
  K 0.5 for Na^+ dependence of aspartate transport: 3.9 ± 0.4 mM
EAAT1 T130A; 1 mM L-glutamate, 150 mM Na^+
  Na^+ dependence of L-glutamate transport: saturation at highest Na^+ concentration: not saturating
GltPh S93A [1]; 500 nM ^3H-L-aspartate
  Hill coefficient of Na^+ dependence of aspartate transport: 1.9±0.2
GltPh S93A [1]; 500 nM ^3H-L-aspartate, Na^+ 0.1 to 300 mM
  K 0.5 for Na^+ dependence of aspartate transport: 44 ± 2 mM
EAAT1; 300 µM L-glutamate
  Hill coefficient of Na^+ dependence of L-glutamate transport: 2.8±0.4
EAAT1; 300 µM L-glutamate, Na^+ 1 to 150 mM
  K 0.5 for Na^+ dependence of L-glutamate transport: 28 ± 4 mM
EAAT1 T131A; 1 mM L-glutamate, 150 mM Na^+
  Na^+ dependence of L-glutamate transport: saturation at highest Na^+ concentration: not saturating
GltPh T92A [2]
  reduction of the binding free energy of Na3 by the mutation: 7.5 kcal/mol
GltPh S93A [3]
  reduction of the binding free energy of Na3 by the mutation: 5.9 kcal/mol
GltPh T92A [4]; 100 nM ^3H-L-aspartate
  Hill coefficient of Na^+ dependence of aspartate transport: 2.1±0.2
GltPh T92A [4]; [6]
  K 0.5 for Na^+ dependence of aspartate transport: 19 ± 1 mM

## N[C@@H](CC(=O)O)C(=O)O [aspartate]
GltPh D312A
  ^3H-L-aspartate uptake versus background: did not exhibit ^3H-L-aspartate uptake over background levels
Wild type GltPh; [7]
  maximal velocity of ^3H-L-aspartate transport: 7.5±0.5 nmol/mg protein/min
Wild type GltPh; [8]
  K 0.5 for aspartate transport: 100 ± 10 nM
GltPh S93A [1]; [7]
  maximal velocity of ^3H-L-aspartate transport: 58±3 nmol/mg protein/min
GltPh S93A [1]; [8]
  K 0.5 for aspartate transport: 370 ± 60 nM
GltPh N310A
  ^3H-L-aspartate uptake versus background: did not exhibit ^3H-L-aspartate uptake over background levels
GltPh T92A [4]; [7]
  maximal velocity of ^3H-L-aspartate transport: 42±1 nmol/mg protein/min
GltPh T92A [4]; [8]
  K 0.5 for aspartate transport: 61 ± 10 nM
